The subject of assay [1] is Fov hyphae. The experiment in a line: Detection of reactive oxygen species (DHR123 oxidation) in response to NaD1. Conditions: for effect of ROS scavenger on NaD1-induced DHR123 oxidation: in the presence of ascorbic acid or TEMPO.
Assay [2] has as its system Fusarium oxysporum f. sp. vasinfectum (Fov). The assay is classed as cell-based.
The test system is the same in assay [3]. Put plainly: Growth of Fusarium oxysporum in the presence of NaD1 and chemical fungicides in vitro. The assay is classed as cell-based. The settings on record: Fov growth curves, combination with NaD1. As to the method:
The inhibitory effects of defensin (NaD1) and chemical fungicides on the growth of Fusarium oxysporum f. sp. vasinfectum (Fov) (Australian isolate VCG01111 isolated from cotton and provided by Farming Systems Institute, DPI, Queensland, Australia) were measured essentially as described by Broekaert, et al (1990). Spores were isolated from sporulating cultures growing in ½ strength potato dextrose broth (PDB). The Fov culture was grown in ½ PDB for 1-2 weeks at room temperature, before spores were separated from hyphal matter by filtration through sterile tissue paper. The concentration of spores in the filtrate was measured using a hemocytometer. NaD1 and the fungicides were prepared as described in Example 1. The conditions used for the fungal growth assay were the same as those described in Example 1.

For a further assay, the system named is Leptosphaeria maculans. The experiment in a line: Growth of Leptosphaeria maculans in the presence of NaD1 and chemical fungicides in vitro. The assay is classed as cell-based. The settings on record: L. maculans, combination with NaD1. As to the method: The defensin (NaD1) and the chemical fungicides prothioconazole (Sigma-Aldrich Cat #34232, 99.9% pure) and fluquinconazole (Nova Chem, Cat #C13805000, 98.5% pure) were assessed for their individual and combined inhibitory effects on the growth of Leptosphaeria maculans (Australian isolate IBCN18, Prof. B. Howlett) in vitro.
Leptosphaeria maculans was grown in 10% (v/v) V8 medium for about 2 weeks. Spores were collected by filtration through sterile muslin and adjusted to a final concentration of 5×10^4 spores/mL. The conditions used for the fungal growth assay were the same as those described in Example 1 except 10% (v/v) V8 medium was used.

The next assay concerns Verticillium dahliae. Put plainly: Growth of Verticillium dahliae in the presence of NaD1 and chemical fungicides in vitro. Conditions: V. dahliae growth curves, combination with NaD1. The class given is cell-based. How it is done:
The inhibitory effects of defensin (NaD1) and chemical fungicides were assayed on growth of Verticillium dahliae (Australian isolate VCG-4B, Dr. Stephen Allen, Cotton Seed Distributors, Narrabri, NSW, Australia) in vitro.
Spores of V. dahliae were isolated from sporulating cultures growing in Czapek-Dox broth (Difco) for 1-2 weeks at room temperature. Spores were separated from hyphal matter by filtration through sterile tissue paper and the concentration of spores in the filtrate was measured using a hemocytometer. NaD1 and the fungicides were prepared as described in Example 1. The conditions used for the fungal growth assay were the same as those described in Example 1 except that Czapek-Dox broth was used in place of PDB.

Another assay concerns Fusarium graminearum. The experiment in a line: microbe, parasite or virus in culture. The class given is cell-based.
A further assay concerns Saccharomyces cerevisiae. Put plainly: Effect of NaD1 on growth of yeast strains.
For assay [4], the system named is Fov hyphae. Put plainly: Uptake of fluorescently labeled NaD1 (NaD1-bimane) by fluorescence microscopy. The settings on record: live hyphae.
Procedure: Hyphae grown for 18 h as described were treated with NaD1-bimane (2 μM) for between 10 min and 6 h. Hyphae were then visualized by fluorescence microscopy using an MWU filter (excitation wavelength of 330-385 nm).
In assay [5] the test system is Fov hyphae. The experiment in a line: Membrane permeabilization of Fov hyphae, SYTOX green uptake. Conditions: 0.1, 2 or 10 μM NaD1 or 10 μM NaD1R&A. The class given is cell-based, Fusarium oxysporum f. sp. vasinfectum.
For another assay, the system named is Candida albicans. Put plainly: Effect of NaD1 on growth of yeast strains.

Ends that are not written are not given here.

The inhibition is the relative decrease from the control value, in per cent.

Procedure for Candida albicans: (§1) The effect of NaD1 on the growth of the yeast strains Candida albicans, Pichia pastoris and Saccharomyces cerevisiae (from Department of Microbiology, La Trobe University) was assayed in microtitre plates. Cells were grown in YPD for 48 h, then counted using a haemocytometer and diluted to a concentration of 5×10^4 cells/mL in fresh YPD. Cell suspension (100 μL) containing 0-10 μM NaD1 was added to the wells of a 96-well microtitre plate and incubated for 48 h at 30° C. Growth was determined by measuring the optical density at 595 nm using a microtitre plate reader. Each test was performed in quadruplicate.
Procedure for Saccharomyces cerevisiae: as §1

Regarding `CC1(C)CCCC(C)(C)N1[O]` [TEMPO], the “effect of ROS scavenger on NaD1-induced DHR123 oxidation” value in the assay with Fov hyphae [1] was “did not alter the level of fluorescence”.

With `O=C1O[C@H]([C@@H](O)CO)C(O)=C1O` [ascorbic acid, Ascorbic acid], in assay [2], the “effect of ROS scavenger on growth inhibition of Fov by NaD1” value was “nor did the presence of 10 mM ascorbic acid affect growth inhibition of Fov by NaD1”. For the same compound, the “effect of ROS scavenger on NaD1-induced DHR123 oxidation” value in the assay with Fov hyphae [1] is “did not alter the level of fluorescence”.

Consider `CO/C=C(/C(=O)OC)c1ccccc1Oc1cc(Oc2ccccc2C#N)ncn1` [azoxystrobin], for which, in assay [3], the “synergism with NaD1” value is recorded as “synergistic effect”.

In the case of `CO/N=C(/C1=NOCCO1)c1ccccc1Oc1ncnc(Oc2ccccc2Cl)c1F` [fluoxastrobin], in [3], the “synergism with NaD1” value was “synergy”.

In the case of `O=c1c2cc(F)ccc2nc(-n2cncn2)n1-c1ccc(Cl)cc1Cl` [fluquinconazole], the “enhancement of fungicide activity by defensin” value with Leptosphaeria maculans was “synergistic”.

`C[Si](Cn1cncn1)(c1ccc(F)cc1)c1ccc(F)cc1` [flusilazole]: in the assay on Verticillium dahliae, the “synergism with NaD1” value is “Synergism”.

For the compound `CO/C=C(/C(=O)OC)c1ccccc1COc1cccc(C(F)(F)F)n1` [picoxystrobin], the “synergism with NaD1” value in assay [3] is “synergy”.

Take `CCCC1COC(Cn2cncn2)(c2ccc(Cl)cc2Cl)O1` (stereo not drawn) [propiconazole]: in the assay with Fusarium graminearum (0.24 μM NaD1 combined with 1 mg/L propiconazole), the “toxicity with Fusarium graminearum” value is on record as “significantly enhanced”. Also, the “synergism with NaD1” value with Fusarium graminearum (F. graminearum growth curves, combination with NaD1) is “Synergism”; in [3], “Synergism”; in the assay with Verticillium dahliae, “Synergism”. Moreover, the inhibition at 0.06 µg/mL in the assay on Fusarium graminearum (Fusarium graminearum, read-out: inhibition of fungal growth) is approximately 13%. In addition, the “inhibition of fungal growth” value in the assay with Fusarium graminearum (combination of 0.5 μM defensin and 0.06 mg/L propiconazole) was “about 78%”.

In the case of `OC(Cc1ccccc1Cl)(Cn1nc[nH]c1=S)C1(Cl)CC1` (stereo not drawn) [prothioconazole], in the assay with Leptosphaeria maculans, the “enhancement of fungicide activity by defensin” value is “synergistic”.

As for `CC(C)(C)C(O)(CCc1ccc(Cl)cc1)Cn1cncn1` (stereo not drawn) [tebuconazole], the “synergism with NaD1” value in the assay with Verticillium dahliae was “Synergism”.

Take “DmAMP1: plant defensin from dahlia (ELCEKASKTWSGNCGNTGHCDNQCKSWEGAAHGACHVRNGKHMCFCYFNC; UniProt P0C8Y4 1-50, looked up) [reference compound]”: the effect on growth result in the assay on Saccharomyces cerevisiae is on record as “inhibited the growth”.

As to “NaD1 labeled with FITC: NaD1 labeled with FITC via reactive amine groups (RECKTESNTFPGICITKPPCRKACISEKFTDGHCSKILRRCLCTKPC; cysteine pairing not given here; also: FITC label via reactive amine groups; UniProt Q8GTM0 26-72, looked up)”, the “antifungal activity of labeled NaD1” value in assay [2] was “not biologically active”.

Take “NaD1-bimane: NaD1 labeled with the fluorophore bimane amine on carboxyl residues (RECKTESNTFPGICITKPPCRKACISEKFTDGHCSKILRRCLCTKPC; cysteine pairing not given here; also: bimane amine fluorophore on carboxyl residues; UniProt Q8GTM0 26-72, looked up)”: in assay [2], the “antifungal activity of labeled NaD1” value is recorded as “retained full antifungal activity”. Besides, the “time at which internalization was observed” value in the assay on Fov hyphae [4] was in the range of 20 to 30 min.

Consider “NaD1R&A: NaD1 with cysteine residues reduced and alkylated (RECKTESNTFPGICITKPPCRKACISEKFTDGHCSKILRRCLCTKPC; also: cysteines reduced and alkylated; UniProt Q8GTM0 26-72, looked up)”, for which, in assay [2], the “activity in growth inhibitory assays” value is “completely inactive”. In the assay with Fov hyphae [5], the “permeabilization of hyphae (SYTOX green)” value is on record as “Permeabilization was not observed”. Moreover, in the assay with Fov hyphae [1] (NaD1 0.1, 2 and 10 μM or 10 μM NaD1R&A), the “ROS production (DHR123 oxidation fluorescence)” value is listed as “No fluorescence was observed”.

Take “RsAFP2: plant defensin from radish (QKLCQRPSGTWSGVCGNNNACKNQCIRLEKARHGSCNYVFPAHKCICYFPC; UniProt P30230 30-80, looked up) [reference compound]”: the effect on growth result with Candida albicans is listed as “inhibited the growth”.

Values taken from patent US9848603B2, “Methods for protecting plants with antifungal compositions” (priority 2008, dated 2017).
